The values below come from US20060252733A1, “Betulin, betulin derivatives, betulinic acid and betulinic acid derivatives as novel therapeutics in the treatment of disease of lipid and/or glucose metabolism” (Novelix Pharmaceuticals, Inc., priority 2005, published 2006).

Values after ≈ are worked out from the molar mass of the structure shown.

One test concerns the target T1, Apolipoprotein A1 (Bos taurus, UniProt P15497).
T1 construct: from tissue; host or cells: fetal calf serum
T1 sequence (P15497 25-265 limits assumed): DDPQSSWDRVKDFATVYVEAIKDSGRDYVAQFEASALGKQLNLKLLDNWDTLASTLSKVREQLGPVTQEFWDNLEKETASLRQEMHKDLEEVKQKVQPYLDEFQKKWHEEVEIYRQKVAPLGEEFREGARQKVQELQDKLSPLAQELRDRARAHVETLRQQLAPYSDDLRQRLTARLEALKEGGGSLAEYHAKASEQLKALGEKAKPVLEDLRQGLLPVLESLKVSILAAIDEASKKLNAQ
Kind of test: Identification of NVX-207 binding proteins (Sulfo-SBED biotin label transfer, 2-D gel, MALDI-TOF-MS). Particulars: Fetal Calf Serum, NVX-207 coupled to Sulfo-SBED at 5 μg/ml, with or without 20-fold molar excess of unlabeled NVX-207. An excerpt:
The presence of a primary amine group on NVX-207, a unique feature of this derivative compared to other known betulinic acid derived compounds, allows the coupling of other chemical compounds. A commercially available kit from Pierce was used to couple NVX-207 with biotin (Pierce-Sulfo-BED). This procedure allows the identification of NVX-207 binding proteins in protein lysates from any source. This procedure is generically illustrated in FIG. 2. In short, the amine groups of NVX-207 are modified via the Sulfo-NHS moiety of Sulfo-SBED. This derivatized NVX-207 is then incubated in the dark with a lysate or with a purified putative “prey” protein. The bait and prey complex is then captured or trapped by exposing the sample to high-intensity UV light, which activates the phenylazide moiety of Sulfo-SBED. This photoreactive group covalently links to the bound prey protein, capturing the interacting complex. […] The resulting biotin derivatized complex or prey protein can be detected using streptavidin-HRP or an anti-biotin antibody and chemiluminescent detection. […]
NVX-207 (at 5 μg/ml final concentration) coupled to […] with or without a 20-fold molar excess of unlabeled NVX-207 and resolved by 2-D gel electrophoresis. […] Several spots of similar molecular weight (˜24 kDa) and differing IP (in the range of 4.8 to 5.6) were detected by streptavidin-POD after 2-dimensional (2-D) gel electrophoresis.

The test system of test [1] is human lung cancer cell line (A549). The test is described as follows: NVX-207 IC50/IC80 concentrations in A549 cell cultures. The settings on record: A549 cells. In kind it is cell-based.
The test system of test [2] is human melanoma cell line (518A2). The test is described as follows: Cell survival (cell counts) after 3 days of treatment. Particulars: for Survival in %: 3 days, vs untreated controls (=100%).
Procedure: Induction of cell death was evaluated in a human melanoma cell line (518A2) in the presence of simvastatin and NVX-207 alone or in combination. […] After 3 days of treatment, cell numbers were counted. Percentages of survival given are cell numbers compared to untreated controls (=100%). Experiments were repeated three times. Mean values are given.

Broadly, the IC50 is the concentration needed to halve the response being measured. Broadly, the IC80 is the concentration needed for an effect of 80%. Higher therefore signals a need for much substance.

On to `C=C(C)[C@@H]1CC[C@]2(C(=O)OCC(N)(CO)CO)CC[C@]3(C)[C@H](CC[C@@H]4[C@@]5(C)CC[C@H](OC(C)=O)C(C)(C)[C@@H]5CC[C@]43C)[C@@H]12` [NVX-207], for which the “binding to Apolipoprotein A1” value at Apolipoprotein A1 is reported as “binds to Apolipoprotein A1”. In test [1], this compound showed an IC50 of 1.5 µg/mL (≈ 2.49 µM). Further, the IC80 in test [1] was found to be 2.0 µg/mL (≈ 3.32 µM). The “effect on statin-induced cell death” value in test [2] (518A2 cells, in combination with simvastatin) is recorded as “reduces statin-induced cell death”. In addition, the Survival in % in test [2] (NVX-207 0.5 μg/ml) is reported as 94%; in test [2] (NVX-207 1.0 μg/ml) it was 73%; in test [2] (NVX-207 2.0 μg/ml) it was 26%; in test [2] (NVX-207 4.0 μg/ml) it was 0%.
